Here are results for 14 molecules from patent US20230265116A1, “DEGRADATION OF (EGFR) BY CONJUGATION OF EGFR INHIBITORS WITH E3 LIGASE LIGAND AND METHODS OF USE” (BEIGENE, LTD., priority 2020, published 2023).

Molecules are shown by their SMILES.

Test [1] has as its target T1, EGFR L858R/T790M/C797S (BaF3-LTC cells) (Homo sapiens, UniProt P00533, C797S/L858R/T790M).
T1 construct: expressed in transfected cells; host or cells: BaF3
Put plainly: EGFR degradation HTRF assay, BaF3-LTC cells. The format is cell-based. The conditions noted are these: BaF3-LTC, 16h treatment; for Dmax: maximum percentage of degradation, read-out: LTC Dmax (%); for DC50: read-out: LTC DC50. An outline of the steps:
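Cells treated 16 h at 37 °C, 5% CO2 in medium with 0.2% DMSO; top final concentration 10 uM, 5-fold dilution, 8 doses. Lysates read by HTRF (665/620 nm); degradation % versus DMSO high control, DC50 from four-parameter fit, Dmax as maximal degradation.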
In general terms: In TR-FRET formats the signal depends on donor and acceptor labels being close together.

In test [2] the test system is EGFR Del19/T790M/C797S (BaF3-DTC cells). The test can be described thus: EGFR degradation HTRF assay, BaF3-DTC cells. The test is classed as cell-based. Conditions: 16h treatment; for DTC Dmax (%): maximum percentage of degradation; for DC50: read-out: DTC DC50. An outline of the steps: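 BaF3 (WT, Del19/T790M/C797S) and HCC827 cells exposed 16 h at 37 °C, 5% CO2 to compounds in 0.2% DMSO medium, 8 doses from 10 uM top, 5-fold steps. Lysates read by HTRF (665/620 nm); degradation % vs DMSO control, DC50 from four-parameter fit, Dmax as maximal degradation.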

T1 sequence (P00533 25-1210 T790M/C797S/L858R): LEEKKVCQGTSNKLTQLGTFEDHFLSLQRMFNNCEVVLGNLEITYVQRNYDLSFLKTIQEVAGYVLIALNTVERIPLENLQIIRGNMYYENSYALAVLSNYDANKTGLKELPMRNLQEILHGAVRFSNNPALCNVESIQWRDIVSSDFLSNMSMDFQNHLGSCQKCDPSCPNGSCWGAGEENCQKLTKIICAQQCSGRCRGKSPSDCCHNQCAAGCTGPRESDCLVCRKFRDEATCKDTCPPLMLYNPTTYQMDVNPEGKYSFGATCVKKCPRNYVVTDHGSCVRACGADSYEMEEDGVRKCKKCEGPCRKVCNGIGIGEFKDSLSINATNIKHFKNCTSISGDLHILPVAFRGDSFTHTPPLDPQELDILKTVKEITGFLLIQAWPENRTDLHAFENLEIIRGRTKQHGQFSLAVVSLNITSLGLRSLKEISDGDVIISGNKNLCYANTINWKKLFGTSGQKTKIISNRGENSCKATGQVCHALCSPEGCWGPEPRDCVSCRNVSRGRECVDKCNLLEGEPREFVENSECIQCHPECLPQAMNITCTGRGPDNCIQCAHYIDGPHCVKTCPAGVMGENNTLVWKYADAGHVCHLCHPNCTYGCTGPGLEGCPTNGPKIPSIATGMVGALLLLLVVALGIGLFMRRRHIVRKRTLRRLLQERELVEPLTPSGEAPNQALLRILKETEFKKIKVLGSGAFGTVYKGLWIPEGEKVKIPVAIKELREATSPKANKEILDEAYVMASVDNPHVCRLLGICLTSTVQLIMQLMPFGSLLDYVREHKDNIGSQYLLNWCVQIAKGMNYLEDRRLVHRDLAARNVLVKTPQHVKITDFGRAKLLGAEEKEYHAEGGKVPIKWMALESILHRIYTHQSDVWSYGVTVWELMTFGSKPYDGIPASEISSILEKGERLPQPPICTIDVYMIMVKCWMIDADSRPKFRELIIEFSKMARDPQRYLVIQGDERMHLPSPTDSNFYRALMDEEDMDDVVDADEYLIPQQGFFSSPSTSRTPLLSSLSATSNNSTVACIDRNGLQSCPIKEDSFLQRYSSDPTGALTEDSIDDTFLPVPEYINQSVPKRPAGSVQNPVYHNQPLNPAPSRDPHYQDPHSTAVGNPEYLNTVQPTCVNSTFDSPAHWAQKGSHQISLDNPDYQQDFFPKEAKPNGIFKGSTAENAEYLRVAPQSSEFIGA

In general, Dmax refers to the largest share of the target that was removed. The DC50 is the midpoint of the concentration-degradation curve. In the case of `CCc1cc(Nc2ncc(Br)c(Nc3ccc4nc(C)c(C)cc4c3P(C)(C)=O)n2)c(OC)cc1N1CCC(N2CCN(CCc3cc(F)c(C4CCC(=O)NC4=O)c(F)c3)CC2)CC1` (centres unmarked) [Example 707, 3-(4-(2-(4-(1-(4-((5-bromo-4-((5-(dimethylphosphoryl)-2,3-dimethylquinolin-6-yl)amino)pyrimidin-2-yl)amino)-2-ethyl-5-methoxyphenyl)piperidin-4-yl)piperazin-1-yl)ethyl)-2,6-difluorophenyl)piperidine-2,6-dione], in test [1], the maximal degradation (Dmax) worked out at 92.1% and the DC50 came to 5.79 nM. In test [2], the “DTC Dmax (%)” value is 82.86% and the DC50 came out at 3.29 nM.
For `CCc1cc(Nc2ncc(Br)c(Nc3ccc4nc(C)ccc4c3P(C)(C)=O)n2)c(OC)cc1N1CCC(N2CCN(C(=O)C3CN(CCc4cc(F)c(C5CCC(=O)NC5=O)c(F)c4)C3)CC2)CC1` (centres unmarked) [Example 708, 3-(4-(2-(3-(4-(1-(4-((5-bromo-4-((5-(dimethylphosphoryl)-2-methylquinolin-6-yl)amino)pyrimidin-2-yl)amino)-2-ethyl-5-methoxyphenyl)piperidin-4-yl)piperazine-1-carbonyl)azetidin-1-yl)ethyl)-2,6-difluorophenyl)piperidine-2,6-dione] the same measures were 91.3%, 22.7 nM, 81.62% and 15.2 nM.
For `CCc1cc(Nc2ncc(Br)c(Nc3ccc4nc(C)ccc4c3P(C)(C)=O)n2)c(OC)cc1N1CCC(N2CCN(C3CC(c4ccc(NC5CCC(=O)NC5=O)cc4)C3)CC2)CC1` (centres unmarked) [Example 709, 3-((4-(3-(4-(1-(4-((5-bromo-4-((5-(dimethylphosphoryl)-2-methylquinolin-6-yl)amino)pyrimidin-2-yl)amino)-2-ethyl-5-methoxyphenyl)piperidin-4-yl)piperazin-1-yl)cyclobutyl)phenyl)amino)piperidine-2,6-dione], in test [1], the Dmax is 87.9% and the DC50 was found to be 21.6 nM. In addition, in test [2], the “DTC Dmax (%)” value worked out at 84.65% and the half-maximal degradation concentration (DC50) was found to be 19.8 nM.
With `CCc1cc(Nc2ncc(Br)c(Nc3ccc4nc(C)ccc4c3P(C)(C)=O)n2)c(OC)cc1N1CCC(N2CCN(CCc3ccc4c(c3)C3(CC3)C(=O)N4C3CCC(=O)NC3=O)CC2)CC1` (centres unmarked) [Example 710, 3-(5′-(2-(4-(1-(4-((5-bromo-4-((5-(dimethylphosphoryl)-2-methylquinolin-6-yl)amino)pyrimidin-2-yl)amino)-2-ethyl-5-methoxyphenyl)piperidin-4-yl)piperazin-1-yl)ethyl)-2′-oxospiro[cyclopropane-1,3′-indolin]-1′-yl)piperidine-2,6-dione], in test [1], the greatest degradation seen (Dmax) was found to be 90.9% and the DC50 was determined as 13.6 nM. In test [2], the “DTC Dmax (%)” value amounted to 87.65% and the half-maximal degradation concentration (DC50) turned out to be 2.69 nM.
For `CCc1cc(Nc2ncc(Br)c(Nc3ccc4nc(C)ccc4c3P(C)(C)=O)n2)c(OC)cc1N1CCC(N2CCN(CCc3ccc4c(c3)C(C)(C)C(=O)N4C3CCC(=O)NC3=O)CC2)CC1` (centres unmarked) [Example 711, 3-(5-(2-(4-(1-(4-((5-bromo-4-((5-(dimethylphosphoryl)-2-methylquinolin-6-yl)amino)pyrimidin-2-yl)amino)-2-ethyl-5-methoxyphenyl)piperidin-4-yl)piperazin-1-yl)ethyl)-3,3-dimethyl-2-oxoindolin-1-yl)piperidine-2,6-dione] the same measures were 90.8%, 2.88 nM, 91.94% and 0.505 nM.
For `CCc1cc(Nc2ncc(Br)c(Nc3ccc4ncn(C)c(=O)c4c3P(C)(C)=O)n2)c(OC)cc1N1CCC(N2CCN(C(=O)C3CN(c4ccc5c(c4)CN(C4CCC(=O)NC4=O)C5=O)C3)CC2)CC1` (centres unmarked) [Example 712, 3-(5-(3-(4-(1-(4-((5-bromo-4-((5-(dimethylphosphoryl)-3-methyl-4-oxo-3,4-dihydroquinazolin-6-yl)amino)pyrimidin-2-yl)amino)-2-ethyl-5-methoxyphenyl)piperidin-4-yl)piperazine-1-carbonyl)azetidin-1-yl)-1-oxoisoindolin-2-yl)piperidine-2,6-dione] the same measures were 88.6%, 7.34 nM, 91.27% and 2.06 nM.
Turning to `CCc1cc(Nc2ncc(Br)c(Nc3ccc4nc(C)ccc4c3P(C)(C)=O)n2)c(OC)cc1N1CCC(N2CCCN(CCc3cc(F)c(C4CCC(=O)NC4=O)c(F)c3)CC2)CC1` (centres unmarked) [Example 713, 3-(4-(2-(4-(1-(4-((5-bromo-4-((5-(dimethylphosphoryl)-2-methylquinolin-6-yl)amino)pyrimidin-2-yl)amino)-2-ethyl-5-methoxyphenyl)piperidin-4-yl)-1,4-diazepan-1-yl)ethyl)-2,6-difluorophenyl)piperidine-2,6-dione], in test [1], the greatest degradation seen (Dmax) was 90.4% and the half-maximal degradation concentration (DC50) was 50.8 nM. In test [2], the “DTC Dmax (%)” value was 86.33% and the DC50 was 7.43 nM.
Turning to `CCc1cc(Nc2ncc(Br)c(Nc3ccc4ncsc4c3P(C)(C)=O)n2)c(OC)cc1N1CCC(N2CCN(CCc3cc(F)c(C4CCC(=O)NC4=O)c(F)c3)CC2)CC1` (centres unmarked) [Example 714, 3-(4-(2-(4-(1-(4-((5-bromo-4-((7-(dimethylphosphoryl)benzo[d]thiazol-6-yl)amino)pyrimidin-2-yl)amino)-2-ethyl-5-methoxyphenyl)piperidin-4-yl)piperazin-1-yl)ethyl)-2,6-difluorophenyl)piperidine-2,6-dione], in test [1], the maximal degradation (Dmax) was 90.1% and the DC50 is 18.9 nM. Moreover, in test [2], the “DTC Dmax (%)” value came out at 96.7% and the 50% degradation concentration (DC50) was found to be 5.34 nM.
Consider `CCc1cc(Nc2ncc(Br)c(Nc3ccc4nc(C)ccc4c3P(C)(C)=O)n2)c(OC)cc1N1CCC(N2CCN(CCc3cc(F)c(C4CCC(=O)NC4=O)c(F)c3)C[C@@H]2C)CC1` (stereo partly drawn) [Example 715, 3-(4-(2-((S)-4-(1-(4-((5-bromo-4-((5-(dimethylphosphoryl)-2-methylquinolin-6-yl)amino)pyrimidin-2-yl)amino)-2-ethyl-5-methoxyphenyl)piperidin-4-yl)-3-methylpiperazin-1-yl)ethyl)-2,6-difluorophenyl)piperidine-2,6-dione], for which, in test [1], the Dmax came out at 89.8% and the DC50 was 7.08 nM. Also, in test [2], the “DTC Dmax (%)” value amounted to 92.57% and the DC50 was 4.3 nM.
As for `CCc1cc(Nc2ncc(Br)c(Nc3ccc4nc(C)ccc4c3P(C)(C)=O)n2)c(OC)cc1N1CCC(N2C[C@H](C)N(CCc3cc(F)c(C4CCC(=O)NC4=O)c(F)c3)C[C@H]2C)CC1` (stereo partly drawn) [Example 716, 3-(4-(2-((2S,5R)-4-(1-(4-((5-bromo-4-((5-(dimethylphosphoryl)-2-methylquinolin-6-yl)amino)pyrimidin-2-yl)amino)-2-ethyl-5-methoxyphenyl)piperidin-4-yl)-2,5-dimethylpiperazin-1-yl)ethyl)-2,6-difluorophenyl)piperidine-2,6-dione], in test [1], the Dmax is 90% and the 50% degradation concentration (DC50) stood at 8.2 nM. Further, in test [2], the “DTC Dmax (%)” value is recorded as 91.65% and the DC50 is 3.06 nM.
As for `CCc1cc(Nc2ncc(Br)c(Nc3ccc4nc(C)ccc4c3P(C)(C)=O)n2)c(OC)cc1N1CCC(N2CCN([C@H]3C[C@@H](c4cc(F)c(C5CCC(=O)NC5=O)c(F)c4)C3)CC2)CC1` (some centres unmarked) [Example 717, 3-(4-((1s,3s)-3-(4-(1-(4-((5-bromo-4-((5-(dimethylphosphoryl)-2-methylquinolin-6-yl)amino)pyrimidin-2-yl)amino)-2-ethyl-5-methoxyphenyl)piperidin-4-yl)piperazin-1-yl)cyclobutyl)-2,6-difluorophenyl)piperidine-2,6-dione], in test [1], the maximal degradation (Dmax) amounted to 91.4% and the DC50 was 17.1 nM. In test [2], the “DTC Dmax (%)” value stood at 94.13% and the 50% degradation concentration (DC50) stood at 5.98 nM.
For the molecule `CCc1cc(Nc2ncc(Br)c(Nc3ccc4nc(C)ccc4c3P(C)(C)=O)n2)c(OC)cc1N1CCC(N2CCN(CC3CCN(c4cc(F)c(NC5CCC(=O)NC5=O)c(F)c4)CC3)CC2)CC1` (centres unmarked) [Example 718, 3-((4-(4-((4-(1-(4-((5-bromo-4-((5-(dimethylphosphoryl)-2-methylquinolin-6-yl)amino)pyrimidin-2-yl)amino)-2-ethyl-5-methoxyphenyl)piperidin-4-yl)piperazin-1-yl)methyl)piperidin-1-yl)-2,6-difluorophenyl)amino)piperidine-2,6-dione], in test [1], the maximal degradation (Dmax) turned out to be 89.6% and the half-maximal degradation concentration (DC50) came out at 121 nM. In test [2], the “DTC Dmax (%)” value was 79.24% and the DC50 turned out to be 25.6 nM.
On to `CCc1cc(Nc2ncc(Br)c(Nc3ccc4nc(C)ccc4c3P(C)(C)=O)n2)c(OC)cc1N1CCC(N2CCN(CCC3CCN(c4ccc5nn(C6CCC(=O)NC6=O)cc5c4)CC3)CC2)CC1` (centres unmarked) [Example 719, 3-(5-(4-(2-(4-(1-(4-((5-bromo-4-((5-(dimethylphosphoryl)-2-methylquinolin-6-yl)amino)pyrimidin-2-yl)amino)-2-ethyl-5-methoxyphenyl)piperidin-4-yl)piperazin-1-yl)ethyl)piperidin-1-yl)-2H-indazol-2-yl)piperidine-2,6-dione], for which, in test [1], the maximal degradation (Dmax) amounted to 90.4% and the 50% degradation concentration (DC50) was 72.9 nM. In test [2], the “DTC Dmax (%)” value came out at 84.38% and the DC50 is 30.6 nM.
With `CCc1cc(Nc2ncc(Br)c(Nc3ccc4c(=O)n(C)ccc4c3P(C)(C)=O)n2)c(OC)cc1N1CCC(N2CCN(CCC3CCN(c4cc(F)c(C5CCC(=O)NC5=O)c(F)c4)CC3)CC2)CC1` (centres unmarked) [Example 720, 3-(4-(4-(2-(4-(1-(4-((5-bromo-4-((5-(dimethylphosphoryl)-2-methyl-1-oxo-1,2-dihydroisoquinolin-6-yl)amino)pyrimidin-2-yl)amino)-2-ethyl-5-methoxyphenyl)piperidin-4-yl)piperazin-1-yl)ethyl)piperidin-1-yl)-2,6-difluorophenyl)piperidine-2,6-dione], in test [1], the Dmax is 91.7% and the DC50 worked out at 20.3 nM. In test [2], the “DTC Dmax (%)” value is reported as 86.63% and the DC50 was 10.4 nM.
